Here are results for four compounds from patent US5516790A, “Synthesis and application of alkyl-substituted dibenzofurans as antitumorigenic agents” (Texas A&M University System Technology Licensing Office, priority 1994, dated 1996).

Molecules are shown by their SMILES.

In data set [1] the test system is female rat uterus. Description: Antiestrogenic effect on uterine wet weight, immature female Sprague-Dawley rats (Example 8). Format: in vivo.
The test system of data set [2] is estrogen receptor (ER). Description: Uterine estrogen receptor levels, hydroxyapatite assay (Example 8). It is filed as in vivo, female Sprague-Dawley rats. The protocol:
A second group of animals was similarly treated with corn oil, TCDD, MCDF, or TCDD plus MCDF, all administered in corn oil at 10 ml/kg and terminated 72 hours later.
(§1) The animals were terminated by cervical dislocation. Livers were perfused with ice-cold TEDG buffer (10 mM Tris-HCl, 1.5 mM EDTA-4Na, 1 mM dithiothreitol, 10% glycerol (v/v), pH 7.4). Following perfusion in situ, livers were removed, weighed, and homogenized in ice-cold TEDG buffer. Uteri were also removed, weighed, and homogenized in ice-cold buffer. The homogenates were then centrifuged at 800×g ([…]) for 15 minutes and the nuclear pellets were stored at -80° C. The supernatants were further centrifuged at 180,000× g for 1.5 hours. The cytosolic supernatant was also stored at -80° C. Estrogen and progesterone receptor levels were determined within 7 days.
(§2) Estrogen (ER) and progesterone (PR) receptor levels were determined by the hydroxyapatite assay as described by Clark et al. (J. Steroid Biochem. 16:323-328, 1982) and incorporated herein by reference. […] Following the incubations, samples were counted and specific binding was calculated by subtraction of nonspecific from total binding. Assuming one steroid molecule binds to one estrogen/progesterone receptor, the number of moles of receptor can be calculated given the specific activity of the radioligand. The data presented in Tables 1 through 6 are means ± SD using at least four animals per treatment group. Significant differences were determined by analysis of variance.

Data set [3] relates to progesterone receptor (PR). Description: Uterine progesterone receptor levels, hydroxyapatite assay (Example 8). Format: in vivo, female Sprague-Dawley rats. The method, then: as §1, §2
Data set [4] concerns 160-kDa protein. Format: cell-based, human. The protocol: (§3) On day 0, the media was removed and the cells were rinsed two times with PBS. […] The cells were allowed to incubate for 48 h. […] After 6 h, the media was removed, 10 μl was counted and the remaining media was used for analysis of secreted proteins.
(§4) The secreted proteins were analyzed by sodium dodecyl sulfate (SDS) polyacrylamide gel electrophoresis; 30 μl of the media was mixed with an equal volume of buffer containing SDS, β-mercaptoethanol, glycerol, Tris and bromophenol blue. The samples were heated for 2 minutes in a boiling water bath and 50 μl of each sample was loaded onto a 1.5 mm thick 12% acrylamide slab gel (containing 0.075% bisacrylamide) with a 3% stacking gel (containing 0.15% bisacrylamide). The gels were run at […] overnight and processed for fluorography (using Enhance: Dupont) and exposed to Kodak X-OMAT film for 10 days at -80° C. The molecular weights of the proteins were estimated by their mobility relative to a set of standard proteins with known molecular weights.
(§5) The incorporation of ^35 S-methionine into the 34-kDa, 52-kDa and 160-kDa proteins was estimated by scanning the films using a Zeineh Soft Laser Scanning Densitometer (model SLR-20/10) from Biomedical Instruments,Inc. The percentage of the area of the scans due to the particular protein was then compared between the experimental and control samples and the results are presented as means ± SD for at least three samples per treatment group.

Data set [5] relates to 34-kDa protein. It is filed as cell-based, human. The protocol: as §3, §4, §5
Data set [6] has as its system 52-kDa protein. Format: cell-based, human. The conditions noted are these: mcf-7 cells, 48 h, 0.001 µM. The method, then: as §3, §4, §5
The mark [7] stands for this setting: Table 2: 50 μmol/kg + E-2 (2 × 10 μg/rat).
The mark [8] stands for this setting: Table 2: compound alone, 50 μmol/kg (17β-estradiol: 2 × 10 μg/rat).
[9] abbreviates: 17β-estradiol alone, 1 nM, 2880 min.
[10] abbreviates: Table 9, 17β-estradiol alone (1 nM), 2880 min.
Setting [11] is: 150 μmol/kg + E-2 (2 × 10 μg/rat), run B.
[12] abbreviates: compound alone, 150 μmol/kg (17β-estradiol: 2 × 10 μg/rat), run B.
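Wherever Secreted 160-kDa protein is given: MCF-7 human breast cancer cells.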
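Wherever Secreted 34-kDa protein is given: MCF-7 human breast cancer cells.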

For `Cc1cc(Cl)cc2c1oc1cc(Cl)c(Cl)cc12` [6-Methyl-2,3,8-triCDF, 6-methyl-2,3,8-trichlorodibenzofuran], the “Uterine Wet Weight” value in data set [1] (setting [7]) came to 0.204 ± 0.020 % body wt; in data set [1] (setting [8]), 0.125 ± 0.024 % body wt. Moreover, the “Estrogen Receptor Levels, Cytosolic” value in data set [2] (setting [7]) amounted to 105.3 ± 12.2 fmol/mg protein; in data set [2] (setting [8]), 84.3 ± 9.3 fmol/mg protein. Also, the “Estrogen Receptor Levels, Nuclear” value is recorded as 70.8 ± 8.1 fmol/mg protein in data set [2] (setting [7]) and 55.8 ± 7.1 fmol/mg protein in data set [2] (setting [8]). The “Progesterone Receptor Levels, Cytosolic” value worked out at 1062 ± 121 fmol/mg protein in data set [3] (setting [7]) and 356 ± 65 fmol/mg protein in data set [3] (setting [8]). The “Progesterone Receptor Levels, Nuclear” value was 622 ± 71 fmol/mg protein in data set [3] (setting [7]) and 395 ± 52 fmol/mg protein in data set [3] (setting [8]).

With `C[C@]12CC[C@@H]3c4ccc(O)cc4CC[C@H]3[C@@H]1CC[C@@H]2O` [17β-Estradiol], in data set [4] (setting [9]), the “Secreted 160-kDa protein” value was 371 ± 27.1% of the values for control. In addition, in data set [4] (setting [10]), the “Protein Secretion, 160-kDa” value was 228 % of Control. Further, in data set [4] (mcf-7 cells, 48 h, 0.001 µM), the “increase in secretion of the 160-kDa protein” value is 3.81 fold. In data set [5] (setting [9]), the “Secreted 34-kDa protein” value was 282 ± 17.6% of the values for control. Moreover, the “Protein Secretion, 34-kDa” value in data set [5] (setting [10]) is listed as 201 % of Control. The “increase in secretion of the 34-kDa protein” value in data set [5] (mcf-7 cells, 48 h, 0.001 µM) is given as 3.72 fold. In data set [6], the “increase in secretion of the 52-kDa protein” value worked out at 4.97 fold.

On to `CC(C)c1cc(Cl)cc2c1oc1cc(Cl)cc(Cl)c12` [6-i-Propyl-1,3,8-triCDF], for which, in data set [1] (setting [11]), the “Uterine Wet Weight” value was 0.210 ± 0.012 % body wt. The “Uterine Wet Weight” value in data set [1] (setting [12]) was 0.154 ± 0.017 % body wt. In addition, the “antiuterotrophic activity” value in data set [1] (rat, in vivo) is reported as “surprisingly active”. In data set [2] (setting [11]), the “Estrogen Receptor Levels, Cytosolic” value is 135.5 ± 78.1 fmol/mg protein and the “Estrogen Receptor Levels, Nuclear” value is 52.6 ± 2.6 fmol/mg protein. In addition, in data set [2] (setting [12]), the “Estrogen Receptor Levels, Cytosolic” value came to 95.2 ± 6.2 fmol/mg protein and the “Estrogen Receptor Levels, Nuclear” value was 57.7 ± 2.9 fmol/mg protein. Moreover, in data set [2] (cotreatment with 17β-estradiol), the “ED40-60 for Inhibition, ERc” value turned out to be 10 µmol/kg and the “ED40-60 for Inhibition, ERn” value amounted to 25 µmol/kg. In addition, in data set [3] (setting [11]), the “Progesterone Receptor Levels, Cytosolic” value came to 2131 ± 76 fmol/mg protein and the “Progesterone Receptor Levels, Nuclear” value turned out to be 272 ± 19 fmol/mg protein. Besides, in data set [3] (setting [12]), the “Progesterone Receptor Levels, Cytosolic” value is 1225 ± 59 fmol/mg protein and the “Progesterone Receptor Levels, Nuclear” value amounted to 242 ± 17 fmol/mg protein. In addition, in data set [3] (cotreatment with 17β-estradiol), the “ED40-60 for Inhibition, PRc” value turned out to be 25 µmol/kg and the “ED40-60 for Inhibition, PRn” value is 25 µmol/kg.

`Cc1cc2c(cc1Cl)oc1c(Cl)cc(Cl)c(Cl)c12` [8-Methyl-1,2,4,7-tetraCDF, 8-methyl-1,2,4,7-tetrachlorodibenzofuran]: the “Uterine Wet Weight” value in data set [1] (setting [7]) was 0.213 ± 0.017 % body wt; in data set [1] (setting [8]), 0.175 ± 0.007 % body wt. For the same compound, the “Estrogen Receptor Levels, Cytosolic” value came to 118.4 ± 14.6 fmol/mg protein in data set [2] (setting [7]) and 97.1 ± 10.1 fmol/mg protein in data set [2] (setting [8]). In addition, the entries for the “Estrogen Receptor Levels, Nuclear” value in data set [2] (setting [7]) and in data set [2] (setting [8]) were 66.5 ± 8.9 fmol/mg protein and 40.6 ± 5.3 fmol/mg protein, respectively. Besides, the results for the “Progesterone Receptor Levels, Cytosolic” value in data set [3] (setting [7]) and in data set [3] (setting [8]) were 841 ± 73 fmol/mg protein and 685 ± 59 fmol/mg protein, respectively. Further, the “Progesterone Receptor Levels, Nuclear” value in data set [3] (setting [7]) was 399 ± 75 fmol/mg protein; in data set [3] (setting [8]), 303 ± 46 fmol/mg protein.
